The subject of one series is RAW264.7 cells. The series is described as follows: In vitro immunomodulatory activity: cytokine secretion by RAW264.7 cells (ELISA). The format is cell-based, murine. The conditions noted are these: 10 μg/mL, 12 h, 37°C, ELISA; three independent experiments. The protocol:
RAW264.7 cells were seeded at a density of 1.0 × 10^6 cell/mL and treated with (10 μg/mL) or without peptides in each well of a 6-well plate for 12 h at 37°C in a humidified incubator with 5% CO2. After treatment, TNF-α, IL-6 and IL-1β secretion in the cell supernatants was assessed using ELISA kits according to the manufacturer’s instructions.
On the technique in general: An ELISA detects its analyte on a solid surface through an enzyme-linked reagent.

For series [1], the system named is immunoregulatory mediators, proinflammatory cytokines, and chemokines. The arrangement: method as in 4 sources, ref Scott et al., 2002; Tjabringa et al., 2003; Bowdish et al., 2004 ||| ref Mookherjee et al., 2006; Molhoek et al., 2009 ||| ref Li et al., 2006; Tan et al., 2017 ||| ref Wei et al., 2018. The conditions noted are these: cited from earlier work.
A further series has as its system TLR2, RAW264.7 cells. The series is described as follows: TLR2 blocking experiment (anti-mouse TLR2 C9A12, then LTPa). The format is cell-based. Particulars: LTPa 10 μg/mL, 24 h; with or without TLR2 mAb (C9A12) 1 h before; ELISA. The protocol:
For TLR2 blocking experiments, RAW264.7 cells were cultured in 24-well plates overnight at 37°C. The mouse IgG2a isotype control antibody or anti-mouse TLR2 (C9A12; InvivoGen, San Diego, CA, United States) was added to the cell cultures 1 h before being treated with LTPa for 24 h at 37°C. Then, the levels of TNF-α, IL-6, and IL-1β in the culture supernatant were analyzed.

Series [2] relates to CTX-immunosuppressed murine model. The series is described as follows: Body weight and immune organ indices in CTX-immunosuppressed mice. The format is in vivo, BALB/c mice. The conditions noted are these: CTX 80 mg/kg i.p. 3 days, peptide 10 mg/kg i.p. days 4-10, n = 12; for bodyweight: CTX group vs control. The protocol:
BALB/c mice (female, 6–8 weeks; Charles River, Beijing, China) used in this study were maintained in a specific-pathogen-free facility (55 ± 10% humidity and 22 ± 1°C) during the experiments. These experiments were conducted with approval from the Institutional Animal Care and Use Committee of China Agricultural University (certificate of the Beijing Laboratory Animal employee, ID: 18086).
(§1) After a 7-day adaptation period, the mice were randomly divided into five groups (n = 12 in each group): (1) control group: physiological saline was injected intraperitoneally once daily; (2) cyclophosphamide (CTX) group: CTX (80 mg/kg mouse weight; Sigma-Aldrich, St. Louis, MO, United States) was injected intraperitoneally once daily for the first 3 days. […] From days 4 to 10, peptide (10 mg/kg mouse weight) was injected intraperitoneally into mice once daily. Twenty-four hours after the last drug administration, all the mice were weighed and then euthanized, and their tissues and blood were collected for further study. The body weight index was calculated according to the formula:
Index(%)=finalbodyweight-initalbodyweight/initialbodyweight×100
The thymus and spleen indices were measured by the following formula:
Index(mg/g)=weightofthymusorspleen/bodyweight

For series [3], the system named is T lymphocyte subpopulations (CD4 +, CD8 +), mouse peripheral blood. The series is described as follows: Peripheral blood T lymphocyte subpopulations by flow cytometry. The format is in vivo, BALB/c mice. The conditions noted are these: CTX 80 mg/kg i.p. 3 days; peptide 10 mg/kg i.p. days 4-10; three biological replicates. The protocol: as §1, with “formula: […]” for “formula:”
Erythrocytes were aseptically obtained from the different groups of mouse peripheral blood and lysed with RBC lysis buffer. The remaining cells were washed with PBS and resuspended in PBS. The cells were combined with peridinin-chlorophyll-protein complex (PerCP)-conjugated anti-mouse CD3 +, allophycocyanin (APC)-conjugated anti-mouse CD4 +, and fluorescein isothiocyanate (FITC)-conjugated anti-mouse CD8 + (BD Pharmingen, United States) for 30 min at 4°C. The T lymphocyte subpopulations were analyzed by flow cytometry.
In general terms: Flow cytometry measures light scatter and fluorescence of single cells or particles in a stream.

Series [4] has as its system MHC class II, mouse PBMCs. The series is described as follows: DC maturation: MHC-II expression by flow cytometry. The format is in vivo, BALB/c mice. The conditions noted are these: CTX 80 mg/kg i.p. 3 days; peptide 10 mg/kg i.p. days 4-10; three biological replicates. The protocol:
as §1, with “formula: […]” for “formula:”
Mouse peripheral blood mononuclear cells (PBMCs) were obtained from the different groups of mice through Ficoll density gradient centrifugation. The cells were resuspended in PBS with 5% FBS and incubated with 10% (v/v) normal goat serum for 15 min at 4°C. The cells were combined with FITC-conjugated antibodies specific for MHC class II (MHC-II; BD Pharmingen, United States). The surface expression of MHC-II was determined by flow cytometry.

In series [5] the test system is serum TNF-α, IL-6, and IL-1β. The series is described as follows: Serum cytokines by ELISA in CTX-treated mice. The format is in vivo, BALB/c mice. The conditions noted are these: CTX 80 mg/kg i.p. 3 days, peptide 10 mg/kg i.p. days 4-10, three biological replicates. The protocol:
as §1, with “formula: […]” for “formula:”
(§2) Serum was collected from blood and then assayed by ELISA kits according to the protocol supplied by the manufacturer (eBioscience, San Diego, United States) to determine the secretion of IgG, IgA, IgM, TNF-α, IL-6, and IL-1β.

In the next series the test system is serum IgA, IgG, and IgM. Briefly: Serum immunoglobulins by ELISA in CTX-treated mice. The format is in vivo, BALB/c mice. Particulars: CTX 80 mg/kg i.p. 3 days, peptide 10 mg/kg i.p. days 4-10, three biological replicates. The protocol:
as §1, with “formula: […]” for “formula:”
as §2

In series [6] the test system is TLR2-NF-κB signaling pathway. The series is described as follows: Western blot of TLR2-NF-κB signaling pathway. Particulars: proteins from serum, three independent experiments. The format is in vivo, BALB/c mice. The protocol: as §1, with “formula: […]” for “formula:”
Whole proteins were extracted from the serum using a whole-protein extraction kit (Nanjing KeyGEN Biotech, Nanjing, China). The protein concentrations were determined with the BCA Assay (KeyGEN Biotech, Nanjing, China) according to the manufacturer’s instructions. Equivalent amounts of protein were separated by SDS-PAGE and blotted onto polyvinylidene fluoride membranes (Bio-Rad). […]

For series [7] the following is noted: cited from earlier work. An excerpt: TP5 plays a vitally important role in the process of immune enhancement.
In a further series the test system is TLR2. The conditions noted are these: cited from earlier work. An excerpt: Therefore, LL-37 could prevent or attenuate immunosuppression.
For series [8] the following is noted: ref Anders et al., 2018; cited from earlier work.
For another series, the system named is thymic atrophy. Details: method as in Goldstein et al., 1979; Singh et al., 1998. Particulars: ref Goldstein et al., 1979; Singh et al., 1998; cited from earlier work.

Like-named read-outs stand apart in the source and are kept apart here.

With “FKRIVQRIKDFLRRKDVT [LTPb, hybrid peptide combining LL-37b and TP5]”, in the series on RAW264.7 cells, the IL-1β secretion entry is reported as “remarkable increases”, the IL-6 secretion entry was “remarkable increases” and the TNF-α secretion result was “remarkable increases”.

Consider “RKDVTIGKEFKRIVQRIKDFLRNL [TPLc, hybrid peptide combining TP5 and LL-37c]”, for which, in the series with RAW264.7 cells, the IL-1β secretion result is recorded as “no significant increases”, the IL-6 secretion entry was “no significant increases” and the TNF-α secretion result was “no significant increases”.

Take “IGKEFKRIVQRIKDFLRNLVPRTE [LL-37 (13–36), characteristic fragment of LL-37]”: in [1] (ref Mookherjee et al., 2006, Molhoek et al., 2009), the immunoregulatory activity result was “robust immunoregulatory activity”.

For the compound “FKRIVQRI KDFLR [LL-37 (17–29), characteristic fragment of LL-37]”, the immunoregulatory activity result in series [1] (ref Li et al., 2006, Tan et al., 2017) was “robust immunoregulatory activity”.

As to “IGKEFKRIV QRIKDFLRNL [LL-37 (13–31), characteristic fragment of LL-37]”, in series [1] (ref Wei et al., 2018), the immunoregulatory activity entry was “robust immunoregulatory activity”.

In the case of “IGKEFKRIVQRIKDFLRNLRKDVT [LTPc, hybrid peptide combining LL-37c and TP5]”, in the series on RAW264.7 cells, the IL-1β secretion result was “remarkable increases”, the IL-6 secretion entry is listed as “remarkable increases” and the TNF-α secretion result is on record as “remarkable increases”.

For the compound “TLR2 mAb: anti-mouse TLR2 (C9A12; InvivoGen) [reference compound]”, in the series on TLR2, RAW264.7 cells, the “TNF-α, IL-6, and IL-1β production” value was “significantly inhibited the TNF-α, IL-6, and IL-1β production induced by LTPa”.

Consider `O=P1(N(CCCl)CCCl)NCCCO1` (centres unmarked) [CTX, cyclophosphamide, reference compound], for which, in series [2], the spleen index entry is “significantly decreased”, the thymus index entry was “significantly decreased” and the bodyweight entry is reported as “significant decrease in the bodyweight”. Besides, in series [3], the “proportions of CD4 + and CD8 + T lymphocytes” value is “remarkably reduced the proportions of CD4 + and CD8 + T lymphocytes”. For the same compound, the “expression of MHC-II” value in [4] is on record as “significantly decreased”. In series [5], the “serum IL-1β level” value is on record as “significantly decreased”, the “serum IL-6 level” value was “significantly decreased” and the “serum TNF-α level” value was “significantly decreased”. Also, in the series with serum IgA, IgG, and IgM, the “serum IgA level” value is listed as “significantly reduced”, the “serum IgG level” value is given as “significantly reduced” and the “serum IgM level” value is listed as “significantly reduced”. In series [6], the “expression levels of TLR2, MyD88, and TRAF6” value is “significantly decreased the expression levels of TLR2, MyD88, and TRAF6”; the “phosphorylation of IKK-β, IκB-α, and NF-κB” value was “significantly decreased”.

Take “LLGDFFRKSKEKIGKEFKRIVQRIKDFLRNLVPRTES [LL-37]”: in series [2], the bodyweight entry is reported as “improved bodyweight rapidly”. The half-life entry in [7] (ref not separately given (sentence cites Anders et al., 2018)) was “long half-life”. Further, the “innate immune response by binding to TLR2” value in the series on TLR2 (ref Mansour et al., 2014, Zhang et al., 2016, Agier et al., 2018) is “robust innate immune response by binding to TLR2”. Further, the “production of immunoregulatory mediators, proinflammatory cytokines, and chemokines” value in series [1] (ref Scott et al., 2002, Tjabringa et al., 2003, Bowdish et al., 2004) is “stimulates the production of various immunoregulatory mediators, proinflammatory cytokines, and chemokines”. For the same compound, in [8], the cytotoxicity entry is “hampered by its cytotoxicity”.

On to “RKDVT [TP5, Thymopentin, Arg32–Tyr36 fragment derived from thymopoietin; parental peptide]”, for which the bodyweight result in series [2] is listed as “improved bodyweight rapidly”. Also, in series [7], the half-life result is on record as “short half-life”. Moreover, the TLR2 binding entry in the series on TLR2 (ref Li et al., 2013) is “exert its immunoregulatory activity by binding TLR2”. In the series with thymic atrophy, the “restoration of thymic atrophy” value is “able to restore the thymic atrophy induced by immunosuppressants”.

On to “RKDVTIGKEFKRIVQRIKDFLRNLVPRTE [TPLa, hybrid peptide combining TP5 and LL-37a]”, for which, in the series with RAW264.7 cells, the IL-1β secretion result is “no significant increases”, the IL-6 secretion result is given as “no significant increases” and the TNF-α secretion entry is listed as “no significant increases”.

As for “RKDVT FKRIVQRIKDFLR [TPLb, hybrid peptide combining TP5 and LL-37b]”, in the series with RAW264.7 cells, the IL-1β secretion result was “no significant increases”, the IL-6 secretion entry was “no significant increases” and the TNF-α secretion entry is reported as “no significant increases”.

Source of the values: paper PMC7905067, “Design and Immunological Evaluation of a Hybrid Peptide as a Potent TLR2 Agonist by Structure-Based Virtual Screening” (Frontiers in Cell and Developmental Biology, 2021).
